Measurements taken from patent US8697858B2 (priority 2009, dated 2014).
Values joined by “and” are separate entries in the source; they are usually repeats but may differ in a detail not shown here. Equal values may be shown once. Read-outs that look alike come from different tables or passages of the source. In the oligonucleotide strings, read from the 5' end, every base follows the letter of its sugar. An asterisk marks phosphorothioate; unmarked linkages are phosphodiester. Other units and linkages are bracketed, terminal groups are in braces. A string of capitals states the bases alone. [PMO-N] = phosphorodiamidate morpholino subunit (N: the base); [pip] = piperazino phosphorodiamidate linkage (PMOplus)

Key:
Format in all cases: in vivo, ferrets
[1] = system: oseltamivir-resistant H1N1 (SOIV) pandemic influenza virus
[2] = system: oseltamivir-resistant H1N1 (SOIV) pandemic influenza virus; remark: listed apart in the source
[3] = system: oseltamivir-resistant H1N1 (SOIV) pandemic influenza virus; remark: listed apart in the source
[4] = system: oseltamivir-resistant H1N1 (SOIV) pandemic influenza virus; conditions: for Viral Titer / Viral Titer AUC: n = 8
[5] = Post minus Pre, Tamiflu 5 mg/kg p.o. every 12 hours
[6] = Post, Tamiflu 5 mg/kg p.o. every 12 hours
[7] = Pre, Tamiflu 5 mg/kg p.o. every 12 hours

CCOC(=O)C1=C[C@@H](OC(CC)CC)[C@H](NC(C)=O)[C@@H](N)C1 [Tamiflu, Oseltamivir, reference compound]
Body Weight Change Difference [1, 5]: -6.1 g/day
Max Body Temperatures Difference [1, 5]: +1.3 ° F.
Body Weight Change Post [1, 6]: 8.5 ± 3.2 g/day
Max Body Temperatures Post [1, 6]: 105.7 ° F.
Body Weight Change Pre [1, 7]: 15.1 ± 0.4 g/day
Max Body Temperatures Pre [1, 7]: 104.4 ° F.
Clinical Scores ([1]; Tamiflu 5 mg/kg p.o. every 12 hours): 1.17 ± 0.25
Macrophage Cellularity in Upper Respiratory Tract, Day 3 Peak ([2]; nasal wash, Day 3, Tamiflu 5 mg/kg p.o. every 12 hours): 7.91 ± 7.28
Macrophage Cellularity in Upper Respiratory Tract, Average ± Std Deviation ([2]; nasal wash, Tamiflu 5 mg/kg p.o. every 12 hours): 2.98 ± 2.71
lung congestion, alveolitis, infiltrating cells ([3]; AVI-7100 with or without oseltamivir, oseltamivir-only): significant congestion in the lung with marked alveolitis
Viral Titer ([4]; nasal wash, Day 1, Oseltamivir 5 mg/kg p.o. every 12 hours): 2.42 ± 0.58
Viral Titer ([4]; nasal wash, Day 3, Oseltamivir 5 mg/kg p.o. every 12 hours): 0.77 ± 0.73
Viral Titer ([4]; nasal wash, Day 5, Oseltamivir 5 mg/kg p.o. every 12 hours): 0.67 ± 0.67
Viral Titer ([4]; nasal wash, Day 8, Oseltamivir 5 mg/kg p.o. every 12 hours): 0.92 ± 0.37
Viral Titer AUC ([4]; nasal wash, Oseltamivir 5 mg/kg p.o. every 12 hours): 7.015

AVI-7100: PMOplus CGGT+TAGAAGAC+TCATC+TTT, three (piperazino) phosphorodiamidate linkages ([PMO-C][PMO-G][PMO-G][PMO-T][pip][PMO-T][PMO-A][PMO-G][PMO-A][PMO-A][PMO-G][PMO-A][PMO-C][pip][PMO-T][PMO-C][PMO-A][PMO-T][PMO-C][pip][PMO-T][PMO-T][PMO-T])
Clinical Scores ([1]; in vivo): 1.00 ± 0.00 and 1.11 ± 0.21
symptoms of influenza virus infection ([1]; in vivo): significantly reduces symptoms of influenza virus infection
Body Weight Change Difference ([1]; in vivo, ip, 10 mg/kg): -5.7 g/day
Body Weight Change Post ([1]; in vivo, ip, 10 mg/kg): 10.9 ± 1.5 g/day
Body Weight Change Pre ([1]; in vivo, ip, 10 mg/kg): 16.6 ± 0.8 g/day
Max Body Temperatures Difference ([1]; in vivo, ip, 10 mg/kg): +0.7 ° F.
Max Body Temperatures Post ([1]; in vivo, ip, 10 mg/kg): 106.1 ° F.
Max Body Temperatures Pre ([1]; in vivo, ip, 10 mg/kg): 105.4 ° F.
Body Weight Change Difference ([1]; in vivo, ip, 30 mg/kg): +0.8 g/day
Body Weight Change Post ([1]; in vivo, ip, 30 mg/kg): 12.6 ± 2.0 g/day
Body Weight Change Pre ([1]; in vivo, ip, 30 mg/kg): 11.8 ± 0.8 g/day
Max Body Temperatures Difference ([1]; in vivo, ip, 30 mg/kg): −0.5 ° F.
Max Body Temperatures Post ([1]; in vivo, ip, 30 mg/kg): 104.2 ° F.
Max Body Temperatures Pre ([1]; in vivo, ip, 30 mg/kg): 104.7 ° F.
Macrophage Cellularity in Upper Respiratory Tract, Average ± Std Deviation ([2]; in vivo, ip, 10 mg/kg): 4.34 ± 3.82
Macrophage Cellularity in Upper Respiratory Tract, Day 3 Peak ([2]; in vivo, ip, 10 mg/kg): 3.88 ± 4.73
Macrophage Cellularity in Upper Respiratory Tract, Average ± Std Deviation ([2]; in vivo, ip, 30 mg/kg): 2.78 ± 2.97
Macrophage Cellularity in Upper Respiratory Tract, Day 3 Peak ([2]; in vivo, ip, 30 mg/kg): 1.59 ± 1.28
lung congestion, alveolitis, infiltrating cells ([3]; in vivo): no congestion in the lung, only mild alveolitis, and few infiltrating cells
viral titer in nasal wash, benefit in words ([4]; in vivo): Significant benefit
Viral Titer AUC ([4]; 10 mg/kg): 5.515
Viral Titer AUC ([4]; 30 mg/kg): 5.675
